From patent US5811512A, “Non-peptide peptidomimetics and related cyclic hexapeptides” (The Trustees of the University of Pennsylvania, priority 1996, dated 1998) come the findings set out here.

Structures are written as SMILES. pIC50: −log10 of the molar value. Where a SMILES comes first, the peptide text is derived from it. [ ]: non-standard residue; d: D form. Phe(4-F) = N[C@@H](Cc1ccc(F)cc1)C(=O)O

The subject of the experiment is HIV-1 protease.
Usually pIC50 stands for the IC50 on a negative log10 scale, so that one unit is a factor of ten. On to `CC(C)C[C@@H]1NC(=O)[C@@H](Cc2c[nH]c3ccccc23)NC(=O)[C@H](Cc2ccccc2)NC(=O)[C@@H]2CCCN2C(=O)[C@H](Cc2ccccc2)NC(=O)[C@H]([C@@H](C)O)NC1=O` [(17a), Cyclo (Phe-D-Trp-Leu-Thr-Phe-Pro)] (cyclo(FPF[dW]LT)), for which the negative-log IC50 (pIC50) was 5.47. The result for `C[C@@H](O)[C@@H]1NC(=O)[C@H](Cc2ccccc2)NC(=O)[C@@H](Cc2c[nH]c3ccccc23)NC(=O)[C@H](Cc2ccccc2)NC(=O)[C@@H]2CCCN2C(=O)[C@H](Cc2ccccc2)NC1=O` [(17b), Cyclo (Phe-D-Trp-Phe-Thr-Phe-Pro)] (cyclo(FPF[dW]FT)) reads 6.48; that for `C[C@@H](O)[C@@H]1NC(=O)[C@H](Cc2ccc(O)cc2)NC(=O)[C@@H](Cc2c[nH]c3ccccc23)NC(=O)[C@H](Cc2ccccc2)NC(=O)[C@@H]2CCCN2C(=O)[C@H](Cc2ccccc2)NC1=O` [(17c), Cyclo (Phe-D-Trp-Tyr-Thr-Phe-Pro)] (cyclo(FPF[dW]YT)), 5.67; that for `C[C@@H]1NC(=O)[C@@H](Cc2c[nH]c3ccccc23)NC(=O)[C@H](Cc2ccccc2)NC(=O)[C@@H]2CCCN2C(=O)[C@H](Cc2ccccc2)NC(=O)[C@H]([C@@H](C)O)NC1=O` [(17d), Cyclo (Phe-D-Trp-Ala-Thr-Phe-Pro)] (cyclo(ATFPF[dW])), 5.05.

In the case of `COc1ccc(C[C@@H]2NC(=O)[C@@H](Cc3c[nH]c4ccccc34)NC(=O)[C@H](Cc3ccccc3)NC(=O)[C@@H]3CCCN3C(=O)[C@H](Cc3ccccc3)NC(=O)[C@H]([C@@H](C)O)NC2=O)cc1` [(17e), Cyclo (Phe-D-Trp-p-MeO-Phe-Thr-Phe-Pro)] (cyclo(FPF[dW]Y(Me)T)), the pIC50 was 6.89.

`C[C@@H](O)[C@@H]1NC(=O)[C@H](Cc2ccc(F)cc2)NC(=O)[C@@H](Cc2c[nH]c3ccccc23)NC(=O)[C@H](Cc2ccccc2)NC(=O)[C@@H]2CCCN2C(=O)[C@H](Cc2ccccc2)NC1=O` [(17f), Cyclo (Phe-D-Trp-p-F-Phe-Thr-Phe-Pro)] (cyclo(FPF[dW][Phe(4-F)]T)): the negative logarithm of the IC50 (pIC50) is 7.43. The compound `C[C@@H](O)[C@@H]1NC(=O)[C@H](Cc2ccccc2)NC(=O)[C@@H](Cc2c[nH]c3ccccc23)NC(=O)[C@H](CO)NC(=O)[C@@H]2CCCN2C(=O)[C@H](Cc2ccccc2)NC1=O` [(18a), Cyclo (Ser-D-Trp-Phe-Thr-Phe-Pro)] (cyclo(FPS[dW]FT)) gave a pIC50 of 5.66. In turn, `C[C@@H](O)[C@@H]1NC(=O)[C@H](Cc2ccccc2)NC(=O)[C@@H](Cc2c[nH]c3ccccc23)NC(=O)[C@H](CC(=O)O)NC(=O)[C@@H]2CCCN2C(=O)[C@H](Cc2ccccc2)NC1=O` [(18b), Cyclo (Asp-D-Trp-Phe-Thr-Phe-Pro)] (cyclo(D[dW]FTFP)) showed a pIC50 of 5.40. In turn, `C[C@@H](O)[C@@H]1NC(=O)[C@H](Cc2ccccc2)NC(=O)[C@@H](Cc2c[nH]c3ccccc23)NC(=O)[C@H]2CCCN2C(=O)[C@@H]2CCCN2C(=O)[C@H](Cc2ccccc2)NC1=O` [(18c), Cyclo (D-Pro-D-Trp-Phe-Thr-Phe-Pro)] (cyclo(FP[dP][dW]FT)) gave a pIC50 of 7.29. The result for `C[C@@H]1NC(=O)[C@@H]2CCCN2C(=O)[C@H](Cc2ccccc2)NC(=O)[C@H]([C@@H](C)O)NC(=O)[C@H](Cc2ccccc2)NC(=O)[C@@H](Cc2c[nH]c3ccccc23)NC1=O` [(18d), Cyclo (Ala-D-Trp-Phe-Thr-Phe-Pro)] (cyclo(A[dW]FTFP)) reads 5.66; that for `C[C@@H](O)[C@@H]1NC(=O)[C@H](Cc2ccccc2)NC(=O)[C@@H](Cc2c[nH]c3ccccc23)NC(=O)[C@H](Cc2c[nH]c3ccccc23)NC(=O)[C@@H]2CCCN2C(=O)[C@H](Cc2ccccc2)NC1=O` [(18e), Cyclo (Trp-D-Trp-Phe-Thr-Phe-Pro)] (cyclo(FPW[dW]FT)), 7.14; that for `C[C@@H](O)[C@@H]1NC(=O)[C@H](Cc2ccccc2)NC(=O)[C@@H](Cc2c[nH]c3ccccc23)NC(=O)[C@@H](Cc2ccccc2)NC(=O)[C@@H]2CCCN2C(=O)[C@H](Cc2ccccc2)NC1=O` [(18f), Cyclo (D-Phe-D-Trp-Phe-Thr-Phe-Pro)] (cyclo(FP[dF][dW]FT)), 5.95.
